In patent publication US20160038505A1, “METHODS AND COMPOSITIONS FOR TREATING IMPULSE CONTROL DISORDER, ANXIETY-RELATED DISORDERS, VIOLENCE AND/OR ANGER, OR REGULATING FOOD INTAKE” (priority 2014, published 2016):

Assays:
[1] = Pharmacokinetics of noribogaine in healthy male volunteers (plasma, urine, LCMSMS); details: for AUC0-216 / AUC0-∞ / Cmax / Tmax / t1/2: mean (SD), n = 6
dogs = experiment: Fourteen day repeat dose toxicity in dogs; format: in vivo, dog
Protocol: The objective of this study was to determine the toxicity profile of noribogaine HCl given following oral (gavage) administration to dogs for 14 days according to the following Table 3 below:
Noribogaine HCl was administered to groups of 4 male and 4 female dogs by single oral gavage daily for 14 days at doses of 0, 0.5, 1.0 and 5.0 mg/kg/day. An additional group of 4 male and 4 female dogs received either the vehicle control or 5.0 mg/kg/day for 14 days and were held for an additional 28 days after cessation of dosing to assess recovery from any potential drug-induced changes. The study was conducted under GLP guidelines and included comprehensive examinations of clinical signs, body weight, clinical pathology parameters, ophthalmologic examinations, ECG recordings and analyses of plasma for bioanalytical measurement of drug levels at appropriate intervals during the study. At the termination of the dosing phase and at the termination of the recovery phase, all dogs were subjected to a complete post-mortem examination including gross examination of major organs and histologic examination of an extensive list of tissues. Additional sections of brain were obtained from cerebrum, cerebellus, brain stem and spinal cord and examined histologically to evaluate potential effects on brain histopathology. In addition, these sections were examined with immunohistochemical stains for GFAP for evidence of gliosis and Calbindin for a more comprehensive examination of cerebellar Purkinje cells.

Sprague-Dawley rats = experiment: Fourteen day repeat dose toxicity in rats; format: in vivo, rat
Protocol: This study was conducted to evaluate the toxicity profile of noribogaine-HCl following oral (gavage) administration to the rat for 14 days following Table 2 below:
Male and female Sprague-Dawley rats, 10/sex/group, were administered 0, 25, 50 or 100 mg/kg noribogaine HCl daily by single oral gavage for 14 days. An additional 5 rats/sex/group in the 0 (control) and 100 mg/kg groups were retained for a 28 day recovery period during which no drug was administered. Six rats/sex/group (3 rats/sex controls) were similarly dosed and sampled on study days 1 and 14 for analysis of noribogaine-HCl concentrations in the blood.

Sprague-Dawley rat = experiment: Single dose toxicity in rats; format: in vivo
Protocol: The objective of this study was to determine the toxicity and toxicokinetic profile of noribogaine HCl following a single oral (gavage) administration in the Sprague-Dawley rat. A single dose of 100, 300 and 800 mg/kg (achieved with doses of 400 mg/kg 3 h+/−30 min apart because of the limitations of maximum dose formulation concentration). Five male rats/group were used. […] Hypoactivity, vocalization, chewing movements, changes in respiration/posture, salivation, stimuli sensitivity, tremors, twitches and penile erection occurred prior to death. […] The NOAEL was determined to be 100 mg/kg.

[2] = Human pharmacokinetic study, single oral tablet, fasting healthy volunteers (serum); format: in vivo; details: 3 mg, 10 mg, 30 mg or 60 mg single oral tablet
Protocol: In double blind studies, fasting healthy volunteers (6 per cohort) were treated once orally with a tablet of noribogaine HCl. In escalating cohorts, the volunteers received 3 mg, 10 mg, 30 mg or 60 mg noribogaine.

[3] = glucuronide in plasma after 30 mg noribogaine
[4] = glucuronide in plasma after 60 mg noribogaine

CC[C@H]1C[C@@H]2C[C@H]3c4[nH]c5ccc(OC6OC(C(=O)O)C(O)C(O)C6O)cc5c4CCN(C2)[C@@H]13 (stereo partly drawn) [Noribogaine glucuronide, noribogaine glucuronide]
time by which noribogaine glucuronide was detected in all subjects ([1]; 30 mg and 60 mg noribogaine dose groups, plasma): ≤ 0.75 h | proportion of noribogaine glucuronide Cmax and AUC relative to noribogaine ([1]; both dose groups (30 mg, 60 mg)): 3-4% | AUC0-216 [1, 3]: 25.7 (9.1) ng · hr/ml | AUC0-∞ [1, 3]: 25.8 (9.3) ng · hr/ml | Cmax [1, 3]: 1.8 (0.6) ng/ml | Tmax [1, 3]: 3.0 (0.6) hr | t1/2 [1, 3]: 20.6 (4.9) hr | AUC0-216 [1, 4]: 65.0 (21.5) ng · hr/ml | AUC0-∞ [1, 4]: 67.1 (21.9) ng · hr/ml | Cmax [1, 4]: 4.1 (1.2) ng/ml | Tmax [1, 4]: 3.8 (1.2) hr | t1/2 [1, 4]: 23.1 (3.0) hr | time of peak concentrations after noribogaine dosing ([1]; glucuronide, 30 mg and 60 mg dose groups, plasma): 3 to 4 h | mean half-life ([1]; plasma noribogaine glucuronide, 30 mg and 60 mg dose groups): 21 to 23 h

CC[C@@H]1C[C@H]2CC3c4[nH]c5ccc(O)cc5c4CCN(C2)C31.Cl [noribogaine HCl]
lacrimal gland changes (target tissue) (dogs; 5 mg/kg/day for 14 days): slight to moderate atrophy and degeneration of the acinar cells | lacrimal gland change after recovery (dogs; 5 mg/kg/day, 28 days off drug): clear evidence of regeneration of this lacrimal gland change | clinical observations, body weights, clinical pathology, ophthalmology, ECG, gross lesions (dogs; 0.5, 1.0 and 5.0 mg/kg/day oral for 14 days, dosing or recovery phase): No evidence of adverse effect | NOAEL (dogs; 14 days oral, based on lacrimal gland changes): 1 mg/kg/day | body weight change (Sprague-Dawley rats; 100 mg/kg, females): −2.6% | body weight change (Sprague-Dawley rats; 100 mg/kg, males): −5.5% | food consumption change (Sprague-Dawley rats; 100 mg/kg, males and females): −4.7% | effects on mortality, clinical signs, ophthalmoscopy, hematology, coagulation, clinical chemistry, urinalysis, gross necropsy, histopathology (Sprague-Dawley rats; 25, 50 or 100 mg/kg daily oral gavage for 14 days): no test article-related effects | brain sections stained for GFAP or Calbindin (Sprague-Dawley rats; 14 days): No treatment-related differences in the brain | NOAEL (Sprague-Dawley rats; 14 days oral, highest dose tested): 100 mg/kg | liver weight (Sprague-Dawley rats; mid- and high dose groups, considered incidental): Minor increases in liver weight | clinical signs (Sprague-Dawley rat; 100 mg/kg single oral): did not show any treatment related signs | clinical signs (Sprague-Dawley rat; 300 mg/kg single oral, persisted until Day 2 in 3/5 rats): Hypoactivity, vocalization, salivation, stimuli sensitivity, loss of limb function and lying on the cage floor | mortality (Sprague-Dawley rat; 800 mg/kg oral gavage (2 x 400 mg/kg 3 h apart), male rats): Mortality occurred in all male rats | NOAEL (Sprague-Dawley rat; single oral dose, male rats): 100 mg/kg | adverse effects in the trial [2]: no clinically relevant adverse effects
